# Like-named read-outs stand apart in the source and are kept apart here. Residues, ends and D or L forms follow the SMILES beside them. No end group written: not given here.
# Columns and labels:
# [1] = test system: ACE; parameters: method as in 14 sources, ref [13, 14] = [13]; PMID 16218651; doi:10.1021/jf0508908; 13. Vercruysse L. Van Camp J. Smagghe G. ACE inhibitory peptides derived from enzymatic hydrolysates of animal muscle protein: A review J. Agric. Food Chem. 2005 53 8106 8115 10.1021/jf0508908 1621865 || [14]; PMID 22061507; doi:10.1016/S0309-1740(00)00108-X; 14. Arihara K. Nakashima Y. Mukai T. Ishikawa S. Itoh M. Peptide inhibitors for angiotensin I-converting enzyme from enzymatic hydrolysates of porcine skeletal muscle proteins Meat Sci. 2001 57 319 32 ||| ref [13, 15] = [13]; PMID 16218651; doi:10.1021/jf0508908; 13. Vercruysse L. Van Camp J. Smagghe G. ACE inhibitory peptides derived from enzymatic hydrolysates of animal muscle protein: A review J. Agric. Food Chem. 2005 53 8106 8115 10.1021/jf0508908 1621865 || [15]; doi:10.1046/j.1344-3941.2003.00086.x; 15. Katayama K. Tomatsu M. Fuchu H. Sugiyama M. Kawahara S. Yamauchi K. Kawamura Y. Muguruma M. Purification and characterization of an angiotensin I-converting enzyme inhibitory peptide derived from ||| ref [16] = [16]; doi:10.1016/j.foodchem.2008.09.081; 16. Muguruma M. Ahhmed A.M. Katayama K. Kawahara S. Maruyama M. Nakamura T. Identification of pro-drug type ACE inhibitory peptide sourced from porcine myosin B: Evaluation of its antihypertensive eff ||| ref [17] = [17]; PMID 1368684; 17. Miyoshi S. Ishikawa H. Kaneko T. Fukui F. Tanaka H. Maruyama S. Structures and activity of angiotensin-converting enzyme inhibitors in an α-zein hydrolysate Agric. Biol. Chem. 1991 55 1313 1318 13 ||| ref [17, 18] = [17]; PMID 1368684; 17. Miyoshi S. Ishikawa H. Kaneko T. Fukui F. Tanaka H. Maruyama S. Structures and activity of angiotensin-converting enzyme inhibitors in an α-zein hydrolysate Agric. Biol. Chem. 1991 55 1313 1318 13 || [18]; PMID 16448176; doi:10.1021/jf051263l; 18. Wu J. Aluko R.E. Nakai S. Structural requirements of angiotensin i-converting enzyme inhibitory peptides: Quantitative structure−activity relationship study of di- and tripeptides J. Agric. Food C ||| ...; conditions: cited from earlier work; for ACE inhibition (in words): fish skin gelatine hydrolysate peptides, ref [26]; for IC50: porcine-derived peptides, literature, read-out: ACE Inhibition IC50
# [2] = Solubility of synthetic peptides in aqueous solution; format: physicochemical; conditions: in words; stocks 10 mM in deionised water
# Description: Based on the in silico activity prediction, four synthetic peptides were ordered from Peptide Synthetics (Protein Peptide Research Ltd., Fareham, UK). They were supplied as 10 mg aliquots of lyophilised powders. The synthetic peptides were dissolved in deionised water to produce 10 mM stock solutions: • FWG: 10 mg/mL = 24.48 mM therefore 10 mM = 4.085 mg/mL • MFLG: 10 mg/mL = 21.43 mM therefore10 mM = 4.666 mg/mL • […]: 10 mg/mL = 10.75 mM therefore 10 mM = 9.302 mg/mL • FFNDA: 10 mg/mL = 16.32 mM or10 mM = 6.127 mg/mL
# [3] = target: T1, ACE from rabbit lung (Oryctolagus cuniculus, UniProt P12822); assay: ACE-inhibition assay (modified Cushman and Cheung, HHL substrate, HPLC); format: biochemical; conditions: 0.5 mM HHL, TRIS pH 8.3, 37 °C 30 min, HPLC-UV 228 nm, calculated from % inhibition at 0.1, 1 (2) mM, this study
# T1 construct: ACE from rabbit lung (purchased from Sigma Aldrich 2U equal to 1 mg of protein); purchased Sigma Aldrich; host or cells: rabbit lung
# T1 sequence (P12822 34-1310): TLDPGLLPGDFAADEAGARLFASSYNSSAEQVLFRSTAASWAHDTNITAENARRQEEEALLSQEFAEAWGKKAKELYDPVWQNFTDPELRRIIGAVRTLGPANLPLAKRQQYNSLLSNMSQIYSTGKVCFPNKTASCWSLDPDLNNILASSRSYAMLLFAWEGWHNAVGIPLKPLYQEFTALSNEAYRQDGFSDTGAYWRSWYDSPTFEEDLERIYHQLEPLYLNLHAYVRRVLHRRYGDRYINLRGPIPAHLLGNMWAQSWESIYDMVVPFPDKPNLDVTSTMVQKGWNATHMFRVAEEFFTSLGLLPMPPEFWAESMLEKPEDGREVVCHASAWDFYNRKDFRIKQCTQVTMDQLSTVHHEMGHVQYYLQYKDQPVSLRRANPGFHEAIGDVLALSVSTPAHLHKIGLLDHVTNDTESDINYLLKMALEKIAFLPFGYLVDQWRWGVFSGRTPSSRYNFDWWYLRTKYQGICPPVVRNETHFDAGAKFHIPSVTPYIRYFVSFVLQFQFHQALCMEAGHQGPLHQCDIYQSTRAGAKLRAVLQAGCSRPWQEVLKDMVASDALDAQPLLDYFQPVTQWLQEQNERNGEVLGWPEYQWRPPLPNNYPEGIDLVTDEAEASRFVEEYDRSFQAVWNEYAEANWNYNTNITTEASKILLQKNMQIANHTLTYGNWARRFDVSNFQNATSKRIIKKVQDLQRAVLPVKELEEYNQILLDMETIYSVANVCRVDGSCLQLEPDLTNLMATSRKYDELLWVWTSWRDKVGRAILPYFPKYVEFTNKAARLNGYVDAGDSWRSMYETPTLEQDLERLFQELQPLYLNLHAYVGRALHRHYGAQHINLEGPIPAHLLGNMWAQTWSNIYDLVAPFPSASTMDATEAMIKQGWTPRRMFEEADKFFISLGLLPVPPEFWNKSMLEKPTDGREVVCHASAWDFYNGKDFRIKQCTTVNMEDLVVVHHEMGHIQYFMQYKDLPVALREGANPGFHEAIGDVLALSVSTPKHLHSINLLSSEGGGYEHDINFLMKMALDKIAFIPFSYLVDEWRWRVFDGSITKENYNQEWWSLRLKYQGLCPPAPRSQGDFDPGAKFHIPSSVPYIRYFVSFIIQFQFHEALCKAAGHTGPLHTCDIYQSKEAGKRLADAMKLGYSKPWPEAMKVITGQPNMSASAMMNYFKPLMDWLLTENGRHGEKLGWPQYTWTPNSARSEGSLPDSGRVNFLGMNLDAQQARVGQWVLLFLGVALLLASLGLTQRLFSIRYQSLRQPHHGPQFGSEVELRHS
# Description: ACE from rabbit lung (purchased from Sigma Aldrich 2U equal to 1 mg of protein) was reconstituted in milli-q water (1 mL) to produce the ACE stock solution (1 U/mL, 500 μg/mL of protein). ACE working solution (200 mU/mL, 100 μg/mL of protein) was prepared by diluting the stock solution 1:5. ACE stock solution was stored at −20 °C, and the ACE working solution was prepared when required. […] Milli-q water or experimental sample (40 μL) and 0.5 mM HHL (145 μL) were added to 1.5 mL micro-centrifuge tubes and incubated in a water bath at 37 °C for 3 min; then, 200 mU/mL ACE (15 μL) was added to each tube and the tubes were then incubated in a water bath at 37 °C for 30 min. After 30 min, 1 M HCl (200 μL) was added to the tubes to stop the reaction.
# To determine the anti-ACE activity of the analytes, the samples were analysed using HPLC (Beckman Coulter) fitted with an Ascentis® Express Peptide ES-C18, 2.7 μm column. The samples were eluted with an isocratic mobile phase consisting of 50% methanol and 50% water containing trifluoroacetic acid (TFA) (0.2%) at a flow rate of 0.4 mL/min. The substrate and the product were detected using UV at 228 nm. The ability of each peptide to inhibit ACE was measured by comparing the reduction of HA (the product of ACE digested HHL) in relation to the positive control (no inhibitor or peptide present). Inhibition was calculated using Equation (1), as follows:ACE inhibition (%) = (1 − (B ÷ A)) × 100(1) where A is the area of the HA peak in control 1 and B is the area of the HA peak in experimental sample. To assess the anti-ACE activity of the synthetic peptides, samples were prepared by diluting the 10 mM stock synthetic peptide solutions using milli-q water to produce samples at 2 mM, 1 mM, and 0.1 mM.
molecule,measurement,setting,value
GIPGAP [peptide from hydrolysates of thornback ray skin],ACE inhibition (in words),[1],most active ACE inhibitor
"VKKVLGNP [literature porcine peptide, myosin (light chain)]",IC50,"[1]; ref [20],[21]",29 µM
"PTPVP [literature porcine peptide, titin]",IC50,"[1]; ref [20],[24]",256 µM
FFNDA [FFNDA],Solubility in aqueous solution,[2],perhaps less soluble
same,IC50,[3],0.83 mM
"RMLGQTP [literature porcine peptide, troponin C]",IC50,"[1]; ref [13],[15]",503 µM
"ITTNP [literature porcine peptide, myosin]",IC50,"[1]; ref [13],[14]",549 µM
"MNPPK [literature porcine peptide, myosin]",IC50,"[1]; ref [13],[14]",946 µM
CSCC[C@H](N)C(=O)N[C@@H](Cc1ccccc1)C(=O)N[C@@H](CC(C)C)C(=O)NCC(=O)O [MFLG] (H-MFLG-OH),Solubility in aqueous solution,[2],readily soluble in aqueous solution
same,IC50,[3],0.07 mM
"RMLGQTPTK [literature porcine peptide, troponin C]",IC50,"[1]; ref [13],[15]",34 µM
VLAQYK [peptide derived from meat waste],ACE-inhibitory activity (in words),"[1]; peptide derived from meat waste, ref [7]",greatest ACE-inhibitory activity
"VKAGF [literature porcine peptide, actin]",IC50,[1]; ref [16],20 µM
SDPPLVFVG,Solubility in aqueous solution,[2],perhaps less soluble
same,IC50,[3],1.16 mM
LLMLDNDLPP,ACE inhibition (in words),[1],potent non-competitive ACE inhibition
"KRQKYDI [literature porcine peptide, troponin]",IC50,"[1]; ref [17],[20]",27 µM
"KAPVA [literature porcine peptide, titin]",IC50,"[1]; ref [20],[24]",47 µM
"KRVITY [literature porcine peptide, myosin]",IC50,[1]; ref [16],6 µM

# From paper PMC11820866, “Angiotensin-Converting Enzyme (ACE)-Inhibitor Activity of Novel Peptides Derived from Porcine Liver and Placenta” (Molecules, 2025)
